Format in all cases: physicochemical
Data set [1] in a line: pKa determination of the free base (salt screen). The procedure:
A salt screen was conducted to determine if a suitable salt form could be discovered. The pKa of the free base was determined to be less than 2, which limited the range of possible salt coformers. In addition, salts derived from (S)-1-(1-(4-chloro-3-fluorophenyl)-2-hydroxyethyl)-4-(2-((1-methyl-1H-pyrazol-5-yl)amino)pyrimidin-4-yl)pyridin-2(1H)-one free base would have a pHmax less than 2 and would be expected to disproportionate in water. Thus, it was not clear that a crystalline salt could be prepared or that any salt would have acceptable exposure in vivo (an aqueous environment). […] Eventually crystalline salts were obtained from 1,5-naphthalenedisulfonic acid, p-toluenesulfonic acid and benzenesulfonic acid.

Data set [2] can be described thus: Hygroscopicity, automated vapor sorption (DVS). Conditions: salt form; lower than the tosylate and 1,5-naphthalenedisulfonic acid salt forms; vapor sorption at 25° C., 5 to 95% RH. The method, then:
Automated vapor sorption data were collected on a TA Instruments Q5000SA vapor sorption analyzer. NaCl and PVP were used as calibration standards. Samples were not dried prior to analysis. Adsorption and desorption data were collected at 25° C. over a range from 5 to 95% RH at 10% RH increments under a nitrogen purge. Samples were held at the corresponding RH for 1 hour prior to moving to the next RH range. Data were not corrected for the initial moisture content of the samples.

Data set [3] in a line: Solid-form stability against disproportionation in the presence of water. Conditions: compared to the tosylate and naphthalenesulfonic acid salt forms.

Some results are limits rather than exact numbers.

As for `Cn1nccc1Nc1nccc(-c2ccn([C@H](CO)c3ccc(Cl)c(F)c3)c(=O)c2)n1` [VIII, (S)-1-(1-(4-chloro-3-fluorophenyl)-2-hydroxyethyl)-4-(2-(1-methyl-1H-pyrazol-5-ylamino)pyrimidin-4-yl)pyridin-2(1H)-one], in data set [1], the pKa is < 2 and the “pKa of the free base” value is “less than 1.8”.

For the compound `Cn1nccc1Nc1nccc(-c2ccn([C@H](CO)c3ccc(Cl)c(F)c3)c(=O)c2)n1.O=S(=O)(O)c1ccccc1` [besylate salt, (S)-1-(1-(4-Chloro-3-fluorophenyl)-2-hydroxyethyl)-4-(2-((1-methyl-1H-pyrazol-5-yl)amino)pyrimidin-4-yl)pyridin-2(1H)-one, Benzenesulfonate Salt], the hygroscopicity result in data set [2] is “non-hygroscopicity”. Besides, the stability entry in data set [3] is listed as “enhanced stability”.

In general, pKa refers to the pH at which an ionisable group is half protonated.

The values are drawn from patent US11066389B2, “Process for the manufacturing of medicaments” (Genentech, Inc., priority 2014, dated 2021).
